Assay: Binding affinity to beta amyloid protein 1-40 by fluorescence titration
Parameters: species or system Homo sapiens

Structure (SMILES)	Kd [nM]
Oc1ccc(/C=C/c2ccc(/C=C/c3ccc(O)cc3)cc2)cc1	11
O=C(O)c1cc(/C=C/c2c(F)c(F)c(/C=C/c3ccc(O)c(C(=O)O)c3)c(F)c2F)ccc1O	9.4
FC(F)(F)c1ccc(/C=C/c2ccc(/C=C/c3ccc(C(F)(F)F)cc3)cc2)cc1	9.5
Oc1ccc(/C=C/c2c(F)c(F)c(/C=C/c3ccc(O)cc3)c(F)c2F)cc1	0.03
O=C(O)c1cc(/C=C/c2ccc(/C=C/c3ccc(O)c(C(=O)O)c3)c(F)c2)ccc1O	3400
Cc1ccc2c(c1)sc(-c1ccc(N(C)C)cc1)[n+]2C [THIOFLAVIN T]	560

Results, then the compound that gave them:

Kd [nM]	Structure (SMILES)
10	FC(F)(F)Oc1ccc(/C=C/c2ccc(/C=C/c3ccc(OC(F)(F)F)cc3)cc2)cc1
26	FC(F)(F)c1cccc(/C=C/c2ccc(/C=C/c3cccc(C(F)(F)F)c3)cc2)c1
16	FC(F)(F)Oc1cccc(/C=C/c2ccc(/C=C/c3cccc(OC(F)(F)F)c3)cc2)c1
